Columns and labels:
[1] = Single-dose intravenous and oral pharmacokinetic study in mice; format: in vivo, Balb/c mice
Protocol: Twenty-seven male Balb/c mice were randomly divided into 3 groups, 9 mice in each group. Group 1: mice received an intravenous (IV) dose of Compound 1 at 5 mg/kg with a dosing volume of 5 mL/kg. Blood samples were collected at 0.083, 0.25, 0.5, 1, 2, 4, 6, 8, and 24 hours post-dose using a staggered sampling method. Group 2: mice received an oral (gavage) dose of Compound 1 at 50 mg/kg with a dosing volume of 10 mL/kg. Blood samples were collected at 0.25, 0.5, 1, 2, 4, 6, 8, and 24 hours post-dose using a staggered sampling method. Group 3: mice received an oral (gavage) dose of palbociclib at 50 mg/kg with a dosing volume of 10 mL/kg. Blood samples were collected at 1, 3, 4, 6, 8, 10, 12, and 24 hours post-dose using a staggered sampling method. For each group, 3 samples were collected at each time point. Plasma was separated by centrifugation and stored at −70° C. The concentrations of Compound 1 or palbociclib in plasma were measured using LC-MS/MS.

[2] = Single-dose intravenous and oral pharmacokinetic study in rats; format: in vivo, Sprague-Dawley (SD) rats; details: male SD rats
Protocol: Six male Sprague-Dawley (SD) rats were randomly divided into two groups, with three rats in each group. Compound 1 was administered either by intravenous injection at a dose of 2 mg/kg or by oral gavage at a dose of 10 mg/kg. The dosing volumes were 5 mL/kg for intravenous administration and 10 mL/kg for oral administration, with purified water used as the solvent. For the intravenous group, blood samples were collected at 0.083, 0.25, 0.5, 1, 2, 4, 6, 8, and 24 hours post-dose. For the oral group, blood samples were collected at 0.25, 0.5, 1, 2, 4, 6, 8, and 24 hours post-dose. Plasma samples were prepared by centrifugation and stored at −70° C. The plasma concentration of Compound 1 was determined using LC-MS/MS.

[3] = mouse, male Balb/c mice, IV 5 mg/kg, plasma
[4] = mouse, male Balb/c mice, PO 50 mg/kg, plasma
[5] = Sprague-Dawley, rat, IV 2 mg/kg, plasma

CC(=O)c1c(C)c2c(n(C3CCCC3)c1=O)=NC(Nc1ccc(N3CCN(S(=O)(=O)NCCN)CC3)cn1)NC=2 (centres unmarked) [Compound 1]
F ([1]; male Balb/c mice, PO 50 mg/kg vs IV 5 mg/kg): 0.6%
plasma concentration following oral administration compared with palbociclib ([1]; mice, PO 50 mg/kg, in words): significantly lower than that of palbociclib
AUC(0-t) [1, 3]: 670 ng·h/mL
clearance [1, 3]: 119 mL/min/kg
half-life [1, 3]: 2.69 h
Vd ([1]; mouse, male Balb/c mice, IV 5 mg/kg, plasma, read-out: Vdss): 11 L/kg
AUC(0-t) [1, 4]: 39.2 ng·h/mL
Cmax [1, 4]: 21 ng/mL
Tmax [1, 4]: 1 h
AUC(0-t) [2, 5]: 602 ± 161 ng·h/mL
clearance [2, 5]: 56.7 ± 17.3 mL/min/kg
half-life [2, 5]: 5.55 ± 0.503 h
Vd ([2]; Sprague-Dawley, rat, IV 2 mg/kg, plasma, read-out: Vdss): 9.61 ± 5.43 L/kg
plasma concentrations following oral administration ([2]; PO 10 mg/kg, all samples 0.25-24 h, below the lower limit of quantification): < 1 ng/mL
